Values quoted from earlier work, collected in patent US9119796B2, “Razor comprising a molded shaving aid composition comprising a pyrithione source” (The Gillette Company, priority 2011, dated 2015).

System: microbials
Conditions: soap bar composition with platelet ZPT compared with particulate ZPT (median about 0.70 microns, mean about 0.75 microns, thickness less than 0.6 microns); FIG. 1 of U.S. Ser. No. 13/036,889

## [O-]n1ccccc1=S.[O-]n1ccccc1=S.[Zn+2] [platelet ZPT, zinc salt of 1-hydroxy-2-pyridinethione]
  number of colony forming units (CFUs) that form on a substrate: reduces the number of colony forming units (CFUs)
